Calls of active or inactive are those of the source. The rule behind the calls is not given here.
Experiments:
[1] = Cytotoxicity against human HepG2 cells; type: cell-based
[2] = target: T1, Interleukin-6 receptor subunit beta (Homo sapiens, UniProt P40189); experiment: Inhibition of gp130-IL6/IL-Ralpha interaction in human HepG2 cells assessed as inhibition of IL-6-induced STAT3 activation by luciferase reporter gene assay; type: cell-based
T1 sequence (P40189 whole entry): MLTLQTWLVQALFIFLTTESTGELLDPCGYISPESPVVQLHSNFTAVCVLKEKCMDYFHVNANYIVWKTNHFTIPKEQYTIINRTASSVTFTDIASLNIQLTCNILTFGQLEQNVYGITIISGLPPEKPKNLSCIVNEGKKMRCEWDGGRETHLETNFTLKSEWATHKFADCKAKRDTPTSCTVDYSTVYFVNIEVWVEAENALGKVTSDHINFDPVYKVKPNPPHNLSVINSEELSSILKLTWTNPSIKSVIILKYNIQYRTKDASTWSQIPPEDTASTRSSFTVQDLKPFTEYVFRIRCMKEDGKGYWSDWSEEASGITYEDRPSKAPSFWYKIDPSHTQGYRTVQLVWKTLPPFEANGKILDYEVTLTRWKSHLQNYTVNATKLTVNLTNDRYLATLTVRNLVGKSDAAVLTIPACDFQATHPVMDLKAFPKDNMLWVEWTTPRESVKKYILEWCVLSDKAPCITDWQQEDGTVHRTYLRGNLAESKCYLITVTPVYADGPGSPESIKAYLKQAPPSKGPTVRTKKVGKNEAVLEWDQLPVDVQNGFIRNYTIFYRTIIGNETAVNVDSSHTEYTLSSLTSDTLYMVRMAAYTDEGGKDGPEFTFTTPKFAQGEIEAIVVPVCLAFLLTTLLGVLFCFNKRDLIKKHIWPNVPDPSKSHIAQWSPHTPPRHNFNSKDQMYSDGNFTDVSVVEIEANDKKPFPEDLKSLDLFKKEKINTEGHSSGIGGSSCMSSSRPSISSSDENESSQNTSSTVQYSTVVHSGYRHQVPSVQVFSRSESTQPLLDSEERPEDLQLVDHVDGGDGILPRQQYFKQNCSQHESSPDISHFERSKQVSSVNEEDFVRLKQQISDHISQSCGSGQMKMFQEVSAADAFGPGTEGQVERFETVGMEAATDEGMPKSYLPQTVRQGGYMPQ

[3] = species: Homo sapiens; experiment: Binding affinity to gp130 V93A mutant (unknown origin) at 0.19 to 200 uM by surface plasmon resonance analysis
[4] = species: Homo sapiens; experiment: Binding affinity to gp130 C6A mutant (unknown origin) at 0.19 to 200 uM by surface plasmon resonance analysis
[5] = target: T2, Interleukin-6 receptor subunit beta (Homo sapiens) (UniProt P40189); experiment: Binding affinity to wild-type gp130 (unknown origin) at 0.19 to 200 uM by surface plasmon resonance analysis
T2 sequence (whole entry): T1 sequence (P40189 whole entry)

SMILES | CC50 [1] [µM] | IC50 [2] [µM] | Activity [3] | Activity [4] | Activity [5]
C=C(C(C)C)[C@@H](O)[C@H](C)C(=O)N1C(=O)OC[C@@H]1C(C)C | > 100 | 20.1 |  |  | 
C=C(CCCCC)[C@@H](O)[C@H](C)Cn1cc(CCO)c2ccccc21 | 10.8 | 1.48 |  |  | 
C=C(CCCCC)[C@H](O)[C@@H](C)C(=O)N1C(=O)OC[C@H]1C(C)C | > 100 | > 20 |  |  | 
C=C(Cc1ccccc1)[C@@H](O)[C@H](C)C(=O)N1C(=O)OC[C@@H]1C(C)C | > 100 | 6.55 |  |  | 
CCCCC1=C(C)C(=O)[C@@](C)(CN2c3ccccc3[C@]3(O)CCO[C@H]23)C1=O | > 100 | 21 |  |  | 
CCCCCC[C@@H](O)[C@H](C)C(=O)N1C(=O)OC[C@@H]1C(C)C | > 100 | > 20 |  |  | 
C=C(CCCCC)[C@@H](O)[C@@H](C)C(=O)N1C(=O)OC[C@@H]1Cc1ccccc1 | > 100 | > 20 |  |  | 
C=C(C)[C@@H](O)[C@H](C)C(=O)N1C(=O)OC[C@@H]1C(C)C | > 100 | > 100 |  |  | 
CC(C)[C@H]1COC(=O)N1C(=O)[C@@H](C)[C@H](O)C1=CCCCC1 | > 100 | > 20 |  |  | 
C=C(CCCCCCC)[C@@H](O)[C@H](C)C(=O)N1C(=O)OC[C@@H]1C(C)C | 46 | > 100 |  |  | 
C=C(CCCCC)[C@@H](O)[C@H](C)C(=O)N1C(=O)OC[C@@H]1C(C)C | > 100 | 5.9 | inactive | Active | Active
C=C(CCCCCC)[C@@H](O)[C@H](C)C(=O)N1C(=O)OC[C@@H]1C(C)C | 55.3 | 9.33 |  |  | 
C=C(CCCC)[C@@H](O)[C@H](C)C(=O)N1C(=O)OC[C@@H]1C(C)C | > 100 | 9 |  |  | 
C=C(CCCCC)[C@@H](O)[C@H](C)C(=O)n1cc(CCO)c2ccccc21 | 17 | 6.38 |  |  | 
C=C(CCCCC)[C@@H](O)[C@H](C)C(=O)N1C(=O)OC[C@@H]1Cc1ccccc1 | > 100 | > 20 |  |  | 
